Data on 5 compounds can be found in publication PMC8766875 (Nature biotechnology, 2021).

On the set-up of data set [1]: species or system swine (female Yorkshire). The settings on record: in vivo.
For data set [2] the following is noted: cited from earlier work.
In the next data set the test system is swine. Put plainly: Pharmacodynamic response in dosed swine. The format is in vivo.
Data set [3] can be described thus: In vivo pharmacokinetics of insulin and GLP-1 analog in swine. Particulars: removed from dataset.
The mark [4] stands for this setting: 0.24 mg, injection (intramuscular) and L-SOMA groups.

In the case of adalimumab, in data set [1], the “systemic uptake after endoscopic gavage (negative control)” value is on record as “negligible uptake”.

In the case of semaglutide, in data set [2] (in vivo, po), the oral bioavailability entry is given as “approximately 1%”.

With recombinant human insulin, the plasma glucose response entry in the data set on swine (4 IU, injection and L-SOMA groups) is listed as “immediate hypoglycemic onset”. In data set [3] (one L-SOMA-dosed swine, possible sample contamination), the “plasma insulin level at t=0” value is recorded as 41.6 pM. In data set [3] (same single L-SOMA-dosed swine, at 45 minutes), this compound showed a peak plasma level of 136 pM.

Regarding GLP-1, the “ability to traverse the stomach lining for systemic uptake” value in data set [2] (in vivo) was “severely limited ability”. Moreover, in data set [2] (not told), the “bioavailability when using a permeation enhancer” value is “approximately 1%”.

Regarding `CNC[C@H](O)c1ccc(O)c(O)c1` [epinephrine], in data set [1], the “systemic uptake after endoscopic gavage (negative control)” value was “negligible uptake”. Further, in the data set on swine (setting [4]), the blood glucose response result was “rapid rise” and the heart rate response entry is listed as “rapid rise in heart rate”.
